Several values for one entry are separate records, joined by “and”; a condition that tells them apart may be missing. Equal entries are not always repeated.
Legend:
Type in all cases: in vivo, human
[1] = system: adolescent subjects with ADHD and at least one genetic alteration in an mGluR network gene; experiment: PERMP-Math test, Phase Ib trial of NFC-1; conditions: for Change in PERMP / Final PERMP: individual subjects, monohydrate; for Change in PERMP: placebo baseline (week 1) to final (week 5); for Final PERMP: week 5
Source text: The Permanent Product Measure of Performance (PERMP)-Math is an individualized mathematics test that can be performed by a patient periodically when on and off medication for ADHD. It is used, for example, to monitor classroom performance in an experimental laboratory setting. In general, the PERMP test comprises 5 pages of 400 problems that subjects are directed to attempt over a 10-minute period. Subjects may be given a pre-test first to determine their mathematical skill level. Subjects are directed to answer as many questions as they can in the 10-minute period and the test is generally scored on a 0-800-point scale based on the number of questions attempted and the number of questions answered correctly within the time limit. Subjects receive a different version of the test at each setting. All efficacy assessments, except actigraphy, were made at study enrollment (“enrollment baseline”) and again, including actigraphy, once-per-week for the placebo week (“week 1” or “placebo baseline”) and at each of the 4 weeks of NFC-1 treatment. These efficacy measures include items 1-18 of the Vanderbilt scale assessing symptoms related to inattentiveness and hyperactivity-impulsiveness as well as additional questions 19-47 of the Vanderbilt scale assessing other behavioral symptoms (conducted by parent), actigraphy for quantitative measurement of activity, Quotient® ADHD test for objective measurement of micro-motion and shifts in attention state, PERMP-Math test, and CGI-I and CGI-S for assessment of global functioning. Prior to receiving the PK assessment dose, subjects returned to the clinic to be administered the PERMP-Math tests, subjected to actigraphy (set to activate at the time of first placebo dose 2 days later), and to be given a general physical examination including vital signs and weight, blood and urine sampling, and a pregnancy test for female subjects. During the 5-week placebo and dose-escalation phases of the study, subjects visited the clinic again at the end of each week to be administered the Quotient® and PERMP-Math tests, subjected to actigraphy, Vanderbilt and BRIEF measurements (conducted by parent), and to be given a general physical examination including vital signs and weight, blood and urine sampling, and a pregnancy test for female subjects. Based on the data in Table 1, the mean change in PERMP score from pre-study baseline to week 5 was negative 3.43. When analyzed based on genetic tier, there were no significant differences from the overall mean change. […] The test was conducted at the time of clinic visits and thus, for each subject, was not necessarily given at the same time post dose or same time of day from one week to the next. The test was also conducted during a clinic visit and not in a classroom setting. Thus, clinic waiting room distractions, for example, could have varied from one visit to the next and were not controlled.

[2] = system: adolescent subjects with ADHD and at least one genetic alteration in an mGluR network gene; experiment: Actigraphy, Phase Ib trial of NFC-1
Source text: Actigraphy is non-invasive monitoring of human rest/activity cycles, using an actigraph worn by the patient to document body movements. Actigraphs can be worn during school, for example, to measure activity levels. Actigraphy analysis can measure changes in sleep and hyperactivity that may be seen with treatment for ADHD.
All efficacy assessments, except actigraphy, were made at study enrollment (“enrollment baseline”) and again, including actigraphy, once-per-week for the placebo week (“week 1” or “placebo baseline”) and at each of the 4 weeks of NFC-1 treatment. These efficacy measures include items 1-18 of the Vanderbilt scale assessing symptoms related to inattentiveness and hyperactivity-impulsiveness as well as additional questions 19-47 of the Vanderbilt scale assessing other behavioral symptoms (conducted by parent), actigraphy for quantitative measurement of activity, Quotient® ADHD test for objective measurement of micro-motion and shifts in attention state, PERMP-Math test, and CGI-I and CGI-S for assessment of global functioning. […]

[3] = system: subjects with ADHD and ODD; experiment: Vanderbilt ODD score (items 19-26), Phase Ib trial of NFC-1
Source text: The Vanderbilt Rating Scale is a measure that can be completed by parents or teachers (separate forms, see Vanderbilt Rating Scale Parents and Vanderbilt Rating Scale Teachers). The Vanderbilt scale rates the child's behavior on items such as attention, finishing tasks, hyperactivity, difficulty waiting, and measures of conduct or oppositional defiant disorders—as well as measures of overall school performance and interactions with others. The first 18 items on the Vanderbilt scale correspond to those of the ADHD Rating Scale IV above while the Vanderbilt scale also includes items 19-47 related to other mental disorders including ODD (items 19-26), conduct disorder (items 27-40), anxiety (items 41, 42, and 47), and depression (items 43-46). Each of the behavioral assessment items on the Vanderbilt Scale are rated 0, 1, 2, or 3, with 0=never occurring; 1=occasionally, 2=often, and 3=very often. Thus, the ADHD Rating Scale IV, ADHD Rating Scale V, and items 1-18 of the Vanderbilt Rating Scale are equivalent scales, while additional items on the Vanderbilt Scale assess co-morbid phenotypes and disorders.
Subjects were identified as ODD from the K-SADS-P V6 performed at screening and Vanderbilt scores for ODD at screening and at week 1(scores of 2 or 3 on at least 4 of the 8 Vanderbilt items that assess ODD, i.e., items 19 to 26). By the end of the dose escalation phase of the trial at week 5, four of the twelve subjects (nos. 108, 117, 125, and 128) no longer met the screening criteria for ODD.

[4] = out of the 13 ODD subjects, week 1 to week 5

O=C1CC[C@H](C(=O)N2CCCCC2)N1 [NFC-1, fasoracetam monohydrate]
PERMP ([1]; 22q syndrome Subject 110, Week 2, 50 mg bid): 55
PERMP ([1]; 22q syndrome Subject 110, Week 3, 100 mg bid): 51
PERMP ([1]; 22q syndrome Subject 110, Week 4, 200 mg bid): 75
PERMP ([1]; 22q syndrome Subject 110, Week 5, 400 mg bid): 71
PERMP ([1]; 22q syndrome Subject 127, Week 2, 50 mg bid): 167
PERMP ([1]; 22q syndrome Subject 127, Week 3, 100 mg bid): 68
PERMP ([1]; 22q syndrome Subject 127, Week 4, 200 mg bid): 72
PERMP ([1]; 22q syndrome Subject 127, Week 5, 400 mg bid): 64
Change in PERMP ([1]; max dose 100 mg bid): 23 and 0 and 2
Final PERMP ([1]; max dose 100 mg bid): 101 and 125 and 135
Change in PERMP ([1]; max dose 200 mg bid): −18 and 19 and 4 and 31 and −70 and 43 and −2 and −24 and −11
Final PERMP ([1]; max dose 200 mg bid): 103 and 111 and 76 and 160 and 55 and 152 and 71 and 80 and 74
Change in PERMP ([1]; max dose 400 mg bid): −43 and 26 and −9 and 23 and −11 and 12 and 14 and −12 and 0 and −16 and −4 and −37 and 9 and −28 and −14 and −2 and 15 and −23
Final PERMP ([1]; max dose 400 mg bid): 87 and 71 (2×) and 88 and 93 and 48 and 68 and 92 and 64 (3×) and 99 and 80 and 34 and 104 and 46 and 75 and 168
PERMP results over the course of the study ([1]; overall): did not show significant change
bursts of medium/high intensity movements (actigraphy) ([2]; 400 mg bid in comparison with placebo, P<0.001): significant reduction
reduction in moderate to vigorous physical activity (MVPA) ([2]; week 1 (placebo) to week 5, genetic Tiers 1, 2 and 3): most prominent in 400 mg bid dose group
Vanderbilt ODD score (items 19-26, maximum 24) ([3]; Subject 108, end of week 5, placebo baseline 19): 7
Vanderbilt ODD score (items 19-26, maximum 24) ([3]; Subject 117, week 5, placebo baseline 19): 8
Vanderbilt ODD score (items 19-26, maximum 24) ([3]; Subject 128, week 5, placebo baseline 24): 8
improvement in Vanderbilt ODD score ([3]; Subject 130, week 1 to week 5): 3 points
Vanderbilt ODD score ([3]; Subject 130, week 5, out of 24, 24/24 at week 1): 21
subjects with improved Vanderbilt ODD scores ([3]; of 13 ODD subjects, week 1 to week 5): 13 subjects
subjects showing improvements of 2 or more points in Vanderbilt ODD items ([3]; of the remaining eight ODD subjects, week 1 to week 5): four
subjects no longer meeting the screening criteria for ODD ([3]; of the twelve ADHD/ODD subjects, week 5): four
subjects with improvement of at least 3 points in Vanderbilt ODD score [3, 4]: Eleven
subjects with improvement of at least 8 points in Vanderbilt ODD score [3, 4]: 6 subjects
Vanderbilt ODD scores in subjects on anti-psychotic medications ([3]; subjects 111 and 126 on aripiprazole, subject 122 on risperidone, between weeks 1 and 5): improved

Reference: patent US12121514B2, “Nonselective metabotropic glutamate receptor activators for treatment of attention deficit disorder and 22Q syndrome” (THE CHILDREN'S HOSPITAL OF PHILADELPHIA, priority 2015, dated 2024)
